Test results reported in US6355799B1, “Substituted benzene compounds, process for their preparation, and herbicidal and defoliant compositions containing them” (ISK Americas Incorporated, priority 1997, dated 2002).

Tests used:
Type in all cases: in vivo
[1] = test system: redroot pigweed (Amaranthus retroflexus, AMARE); assay: Pre-emerge test, greenhouse herbicide activity screening; details: phytotoxicity rating 0-100, 14 days after application
Method in brief: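 Plants grown in 10 cm pots of sandy loam mix received acetone-dissolved compounds through a moving flat-fan nozzle. Doses ranged from 15 to 1000 g ai/ha. Pre-emerge pots were seeded one day earlier, post-emerge pots 8–21 days earlier. Fourteen days on, each pot was graded 0–100 for damage.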

[2] = test system: barnyardgrass (Echinochloa crus-galli, ECHCG); assay: as above; details: phytotoxicity rating 0-100, 14 days after application
Text: (§1) A standard greenhouse herbicide activity screening system was used to evaluate the herbicidal efficacy and crop safety of these test compounds. Seven broadleaf weed species including redroot pigweed (Amaranthus retroflexus, AMARE, velvetleaf (Abutilon theophrasti, ABUTH), sicklepod (Cassia obtusifolia, CASOB), ivyleaf morningglory (Ipomoea hederacea, IPOHE), lambsquarters (Chenopodium album, CHEAL), common ragweed (Ambrosia artemisizfolia L., AMBEL), and cocklebur (Xanthium strumarium, XANST) were used as test species. Four grass weed species including green foxtail (Setaria viridis, SETVI), barnyardgrass (Echinochloa crus-galli, ECHCG), johnsongrass (Sorghum halepense, SORHA), and large crabgrass (Digitaria sanguinalis, DIGSA) were also used. In addition, three crop species, field corn (Zea mays L., var. Dekalb 535, CORN), soybean (Glycine max L., var. Pella 86, SOY), and is upland rice (Oryza sp., var. Tebonnet, RICE) were included.
(§2) All plants were grown in 10 cm square plastic pots which were filled with a sandy loam soil mix. For pre-emerge tests, seeds were planted one day prior to application of the test compounds. For post-emerge tests, seeds were planted 8-21 days prior to the test to allow emergence and good foliage development prior to application of the test substances. At the time of the post-emerge application, plants of all species were usually at the 2-3 leaf stage of development.
(§3) All test compounds Were dissolved in acetone and applied to the test units in a volume of 187 l /ha. Test materials were applied at rates ranging from 15 g ai/ha to 1000 g ai/ha using a track sprayer equipped with a TJ8001E even flow flat fan spray nozzle. Plants were arranged on a shelf so that the top of the canopy (post-emerge) or top of the soil surface (pre-emerge) was 40-45 cm below the nozzle. Pressurized air was used to force the test solution through the nozzle as it was mechanically advanced (via electrically driven chain drive) over the top of all test plants/pots. This application simulates a typical commercial field herbicide application.
(§4) In the post-emerge test, a commercial non-ionic surfactant was also included (0.25% v/v) to enhance wetting of the leaf surfaces of target plants. Immediately after application, test units of the pre-emerge applications were watered at the soil surface to incorporate the test materials. Subsequently, these test units were bottom-watered. Post-emerge test units were always bottom-watered.
(§5) At 14 days after application of the test materials, phytotoxicity ratings were recorded. A rating scale of 0-100 was used as previously described in Research Methods in Weed Science, 2nd edition, B. Truelove, Ed., Southern Weed Science Society, Auburn University, Auburn, Ala. 1977. Briefly, “0” corresponds to no damage and “100” corresponds to complete death of all plants in the test unit. This scale was used both to determine efficacy against weed species and damage to crop species. Herbicide activity data for various compounds of this invention, which are shown by compound No. in Tables 1-8, are shown in Tables 11 and 12.

[3] = test system: green foxtail (Setaria viridis, SETVI); assay: as above; details: phytotoxicity rating 0-100, 14 days after application
Text: as §1, §2, §3, §4, §5

[4] = test system: ivyleaf morningglory (Ipomoea hederacea, IPOHE); assay: as above; details: phytotoxicity rating 0-100, 14 days after application
Text: as §1, §2, §3, §4, §5

[5] = test system: lambsquarters (Chenopodium album, CHEAL); assay: as above; details: phytotoxicity rating 0-100, 14 days after application
Text: as §1, §2, §3, §4, §5

[6] = test system: large crabgrass (Digitaria sanguinalis, DIGSA); assay: as above; details: phytotoxicity rating 0-100, 14 days after application
Text: as §1, §2, §3, §4, §5

[7] = test system: sicklepod (Cassia obtusifolia, CASOB); assay: as above; details: phytotoxicity rating 0-100, 14 days after application
Text: as §1, §2, §3, §4, §5

[8] = test system: velvetleaf (Abutilon theophrasti, ABUTH); assay: as above; details: phytotoxicity rating 0-100, 14 days after application
Text: as §1, §2, §3, §4, §5

[9] = test system: field corn (Zea mays L., var. Dekalb 535, CORN); assay: Pre-emerge test, crop safety; details: crop damage rating 0-100, 14 days after application
Text: as §1, §2, §3, §4, §5

[10] = test system: upland rice (Oryza sp., var. Tebonnet, RICE); assay: Pre-emerge test, crop safety; details: crop damage rating 0-100, 14 days after application
Text: as §1, §2, §3, §4, §5

[11] = test system: barnyardgrass (Echinochloa crus-galli, ECHCG); assay: Post-emerge test, greenhouse herbicide activity screening; details: post-emerge, 14 days after application, rating scale 0-100
Text: as §1, §2, §3, §4, §5

[12] = test system: green foxtail (Setaria viridis, SETVI); assay: as above; details: post-emerge, 14 days after application, rating scale 0-100
Text: as §1, §2, §3, §4, §5

[13] = test system: ivyleaf morningglory (Ipomoea hederacea, IPOHE); assay: as above; details: post-emerge, 14 days after application, rating scale 0-100
Text: as §1, §2, §3, §4, §5

[14] = test system: lambsquarters (Chenopodium album, CHEAL); assay: as above; details: post-emerge, 14 days after application, rating scale 0-100
Text: as §1, §2, §3, §4, §5

[15] = test system: large crabgrass (Digitaria sanguinalis, DIGSA); assay: as above; details: post-emerge, 14 days after application, rating scale 0-100
Text: as §1, §2, §3, §4, §5

[16] = test system: redroot pigweed (Amaranthus retroflexus, AMARE); assay: as above; details: post-emerge, 14 days after application
Text: as §1, §2, §3, §4, §5

[17] = test system: sicklepod (Cassia obtusifolia, CASOB); assay: as above; details: post-emerge, 14 days after application, rating scale 0-100
Text: as §1, §2, §3, §4, §5

[18] = test system: velvetleaf (Abutilon theophrasti, ABUTH); assay: as above; details: post-emerge, 14 days after application, rating scale 0-100
Text: as §1, §2, §3, §4, §5

[19] = test system: field corn (Zea mays L., var. Dekalb 535, CORN); assay: Post-emerge test, crop safety; details: post-emerge, 14 days after application, rating scale 0-100
Text: as §1, §2, §3, §4, §5

[20] = test system: upland rice (Oryza sp., var. Tebonnet, RICE); assay: Post-emerge test, crop safety; details: post-emerge, 14 days after application, rating scale 0-100
Text: as §1, §2, §3, §4, §5

COc1c(Cl)cc(F)c(-n2c(=O)cc(C(F)(F)F)n(C)c2=O)c1NC(=O)OCc1ccc(OC(F)(F)F)cc1 [4-45]
Pre-emerge Herbicidal Activity AMARE ([1]; 63 g ai/ha): 30 | Pre-emerge Herbicidal Activity AMARE ([1]; 250 g ai/ha): 100 | Pre-emerge Herbicidal Activity ECHCG ([2]; 63 g ai/ha): 0 | Pre-emerge Herbicidal Activity ECHCG ([2]; 250 g ai/ha): 40 | Pre-emerge Herbicidal Activity SETVI ([3]; 63 g ai/ha): 0 | Pre-emerge Herbicidal Activity SETVI ([3]; 250 g ai/ha): 50 | Pre-emerge Herbicidal Activity IPOHE ([4]; 63 g ai/ha): 10 | Pre-emerge Herbicidal Activity IPOHE ([4]; 250 g ai/ha): 40 | Pre-emerge Herbicidal Activity CHEAL ([5]; 63 g ai/ha): 50 | Pre-emerge Herbicidal Activity CHEAL ([5]; 250 g ai/ha): 95 | Pre-emerge Herbicidal Activity DIGSA ([6]; 63 g ai/ha): 0 | Pre-emerge Herbicidal Activity DIGSA ([6]; 250 g ai/ha): 70 | Pre-emerge Herbicidal Activity CASOB ([7]; 63 g ai/ha): 0 | Pre-emerge Herbicidal Activity CASOB ([7]; 250 g ai/ha): 40 | Pre-emerge Herbicidal Activity ABUTH ([8]; 63 g ai/ha): 50 | Pre-emerge Herbicidal Activity ABUTH ([8]; 250 g ai/ha): 90 | Pre-emerge Herbicidal Activity CORN ([9]; 63 g ai/ha): 0 | Pre-emerge Herbicidal Activity CORN ([9]; 250 g ai/ha): 20 | Pre-emerge Herbicidal Activity RICE ([10]; 63 g ai/ha): 0 | Pre-emerge Herbicidal Activity RICE ([10]; 250 g ai/ha): 10 | phytotoxicity rating ECHCG ([11]; 63 g ai/ha): 20 | phytotoxicity rating ECHCG ([11]; 250 g ai/ha): 20 | phytotoxicity rating SETVI ([12]; 63 g ai/ha): 30 | phytotoxicity rating SETVI ([12]; 250 g ai/ha): 60 | phytotoxicity rating IPOHE ([13]; 63 g ai/ha): 95 | phytotoxicity rating IPOHE ([13]; 250 g ai/ha): 100 | phytotoxicity rating CHEAL ([14]; 63 g ai/ha): 100 | phytotoxicity rating CHEAL ([14]; 250 g ai/ha): 100 | phytotoxicity rating DIGSA ([15]; 63 g ai/ha): 10 | phytotoxicity rating DIGSA ([15]; 250 g ai/ha): 20 | phytotoxicity rating AMARE ([16]; 63 g ai/ha, rating scale 0-100 (0 no damage, 100 complete death)): 90 | phytotoxicity rating AMARE ([16]; 250 g ai/ha, rating scale 0-100): 95 | phytotoxicity rating CASOB ([17]; 63 g ai/ha): 80 | phytotoxicity rating CASOB ([17]; 250 g ai/ha): 80 | phytotoxicity rating ABUTH ([18]; 63 g ai/ha): 100 | phytotoxicity rating ABUTH ([18]; 250 g ai/ha): 100 | phytotoxicity rating CORN (crop damage) ([19]; 63 g ai/ha): 10 | phytotoxicity rating CORN (crop damage) ([19]; 250 g ai/ha): 20 | phytotoxicity rating RICE (crop damage) ([20]; 63 g ai/ha): 10 | phytotoxicity rating RICE (crop damage) ([20]; 250 g ai/ha): 20
